Experimental data reported in paper PMC12299470, “Selection of an Optimal Metabolic Model for Accurately Predicting the Hepatic Clearance of Albumin-Binding-Sensitive Drugs” (Pharmaceuticals, 2025).
Like-named read-outs stand apart in the source and are kept apart here.

Legend:
[1] = design: method as in EMBL-EBI database; details: ref EMBL-EBI database, cited from earlier work; for HBA: hydrogen-bond acceptor; for HBD: hydrogen-bond donor
[2] = test system: isolated perfused rat liver; assay: Fitting of hepatic clearance models (MWSM, WSM, PTM, DM) to IPRL FH vs fu data
Experimental: (§1) Under this condition, hepatic availability (FH) served as a clear and practical indicator of CLH. […] Based on the principles of the WSM, Equations (3) and (4) were derived by applying Equations (1) and (2), in conjunction with the concept that CLH equals the liver blood flow multiplied by the extraction ratio. Subsequently, data fitting was performed using these formulas.
(§2) Rosuvastatin consistently aligned with the MWSM predictions throughout the experiment.
(§3) The extraction recovery, calibration curves and retention time of each compound are shown in Table S1, Figures S1 and S2, respectively. All available experimental data were included in the analysis. The formula and experimental data were processed by Prism software v10.4.1 (GraphPad Software, Inc) to generate figures and calculate the degree of fit of different models.

[3] = as above; details: male, Sprague-Dawley, rat, isolated perfused rat liver
Experimental: as §1, §2, §3

[4] = test system: organic anion-transporting polypeptide; design: method as in El-Kattan et al. [36] and DrugBank; details: With / Without; ref El-Kattan et al. [36] and DrugBank; cited from earlier work
[5] = design: method as in PMID 35901930; details: fraction unbound in plasma; regression dataset; cited from earlier work
p-glycoprotein = test system: p-glycoprotein; design: method as in El-Kattan et al. [36] and DrugBank; details: With / Without; ref El-Kattan et al. [36] and DrugBank; cited from earlier work
human serum albumin = human serum albumin (Homo sapiens, UniProt P02768); assay: Rapid equilibrium dialysis (RED), fraction unbound at various HSA concentrations; assay type: in vitro ADME; details: drug 1 μg/mL in Krebs buffer, 37 °C, read-out: fraction unbound (fu)
human serum albumin, sequence (P02768 25-609): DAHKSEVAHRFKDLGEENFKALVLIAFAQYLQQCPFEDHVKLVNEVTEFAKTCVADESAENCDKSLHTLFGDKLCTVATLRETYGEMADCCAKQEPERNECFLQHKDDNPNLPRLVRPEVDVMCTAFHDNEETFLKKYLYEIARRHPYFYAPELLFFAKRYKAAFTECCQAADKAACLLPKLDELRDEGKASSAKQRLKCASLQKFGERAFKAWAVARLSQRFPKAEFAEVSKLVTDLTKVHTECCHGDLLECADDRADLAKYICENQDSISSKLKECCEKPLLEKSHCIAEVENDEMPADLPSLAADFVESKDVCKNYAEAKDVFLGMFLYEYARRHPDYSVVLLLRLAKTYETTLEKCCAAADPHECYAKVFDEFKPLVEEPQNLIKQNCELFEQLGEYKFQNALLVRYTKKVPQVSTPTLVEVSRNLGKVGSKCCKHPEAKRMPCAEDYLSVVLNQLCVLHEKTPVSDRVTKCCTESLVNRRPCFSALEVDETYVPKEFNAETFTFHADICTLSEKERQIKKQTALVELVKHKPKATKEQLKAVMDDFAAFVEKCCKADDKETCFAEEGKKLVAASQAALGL
Experimental: The rapid equilibrium dialysis (RED) apparatus and test inserts were purchased from Thermo Fisher Scientific (Rockford, IL, USA). The unbound fraction of each assessed drug was determined using RED. Briefly, a drug was diluted to 1 μg/mL in Krebs buffer containing different concentrations of HSA. Five hundred microliters of the assessed drug and each of the different HSA concentrations were added to the sample chamber of an insert and 750 μL of blank buffer was added to the adjacent chamber. The loaded inserts were then assembled on a Teflon-based plate.

[6] = Krebs buffer with 0% HSA, 0% HSA
[7] = Krebs buffer with 0.1% HSA, 0.1% HSA
[8] = Krebs buffer with 2% HSA, 2% HSA
[9] = Krebs buffer with […] HSA, 0.25% HSA

In the case of `CN1C(=O)CN=C(c2ccccc2)c2cc(Cl)ccc21` [Diazepam], the “Aromatic Rings” value [1] is given as 2 and the “Heavy Atoms” value [1] is given as 20.

In the case of `O=C(O)Cc1ccccc1Nc1c(Cl)cccc1Cl` [Diclofenac], the “Optimal Model” value ([2]; HSA interval 0–0.01%) is reported as “MWSM”, the “sum of squares, DM” value ([2]; HSA interval 0–0.01%) is reported as 0.0792 and the “sum of squares, Modified WSM” value ([2]; HSA interval 0–0.01%) is reported as 0.0278. The “sum of squares, PTM” value ([2]; HSA interval 0–0.01%) was 0.0702, the “sum of squares, WSM” value ([2]; HSA interval 0–0.01%) was 0.0885 and the “Optimal Model” value ([2]; HSA interval 0.025–2%) was “WSM”. For the same compound, the “sum of squares, DM” value ([2]; HSA interval 0.025–2%) was 0.1400, the “sum of squares, Modified WSM” value ([2]; HSA interval 0.025–2%) was 0.2923 and the “sum of squares, PTM” value ([2]; HSA interval 0.025–2%) was 0.1790. The “sum of squares, WSM” value ([2]; HSA interval 0.025–2%) was 0.1194, the “CLint, DM” value ([2]; male, Sprague-Dawley, rat) was 35.94 and the “CLint, PTM” value ([2]; male, Sprague-Dawley, rat) was 27.63. The “CLint, WSM” value ([2]; male, Sprague-Dawley, rat) was 43.68, the fraction unbound [3] was 0.576 to 0.872 and the OATP [4] was “Without”. The fu p [5] was 0.004, the P-gp (p-glycoprotein) was “Without” and the HBA [1] was 3. For the same compound, the HBD [1] was 2, the “Aromatic Rings” value [1] was 2 and the “Heavy Atoms” value [1] was 19.

In the case of `CNCCC(Oc1ccc(C(F)(F)F)cc1)c1ccccc1` (centres unmarked) [Fluoxetine], the “Optimal Model” value ([2]; HSA interval 0–2%) is reported as “WSM”, the “sum of squares, DM” value ([2]; HSA interval 0–2%) is reported as 0.2062 and the “sum of squares, Modified WSM” value ([2]; HSA interval 0–2%) is reported as 5.9630. For the same compound, the “sum of squares, PTM” value ([2]; HSA interval 0–2%) was 0.2096, the “sum of squares, WSM” value ([2]; HSA interval 0–2%) was 0.1154 and the fraction unbound at 8 h, 1 μg/mL (human serum albumin; [6]) was 0.99. The fraction unbound at 8 h, 1 μg/mL (human serum albumin; [7]) was 0.45, the fraction unbound at 8 h, 1 μg/mL (human serum albumin; [8]) was 0.05 and the fraction unbound at 8 h, 1 μg/mL (human serum albumin; Krebs buffer with […] HSA, 0.025% HSA) was 0.87. The fraction unbound at 8 h, 1 μg/mL (human serum albumin; [9]) was 0.4.

In the case of `CC(C)c1nc(N(C)S(C)(=O)=O)nc(-c2ccc(F)cc2)c1/C=C/[C@@H](O)C[C@@H](O)CC(=O)O` [Rosuvastatin], the “Optimal Model” value ([2]; HSA interval 0–2%) is reported as “MWSM”, the “sum of squares, DM” value ([2]; HSA interval 0–2%) is reported as 1.4550 and the “sum of squares, Modified WSM” value ([2]; HSA interval 0–2%) is reported as 0.2132. The “sum of squares, PTM” value ([2]; HSA interval 0–2%) was 1.0670, the “sum of squares, WSM” value ([2]; HSA interval 0–2%) was 1.8440 and the OATP [4] was “With”. The fu p [5] was 0.129, the P-gp (p-glycoprotein) was “Without” and the HBA [1] was 9. The HBD [1] was 3, the PSA ([1]; polar surface area, in Å2 (unit assumed)) was 140.9 and the “Aromatic Rings” value [1] was 2. For the same compound, the “Heavy Atoms” value [1] was 33, the fraction unbound at 8 h, 1 μg/mL (human serum albumin; [6]) was 0.99 and the fraction unbound at 8 h, 1 μg/mL (human serum albumin; [7]) was 0.9. The fraction unbound at 8 h, 1 μg/mL (human serum albumin; Krebs buffer with 0.375% HSA, 0.375% HSA) was 0.65, the fraction unbound at 8 h, 1 μg/mL (human serum albumin; Krebs buffer with 0.5% HSA, 0.5% HSA) was 0.51 and the fraction unbound at 8 h, 1 μg/mL (human serum albumin; Krebs buffer with 1% HSA, 1% HSA) was 0.42. It also gave a fraction unbound at 8 h, 1 μg/mL (human serum albumin; [8]) of 0.29 and a fraction unbound at 8 h, 1 μg/mL (human serum albumin; [9]) of 0.77.
